Assay results from ChEMBL document CHEMBL5523721, “Derivatives of D(-) glutamine-based MMP-2 inhibitors as an effective remedy for the management of chronic myeloid leukemia-Part-I: Synthesis, biological screening and in silico binding interaction analysis” (Eur J Med Chem, 2024).

Key:
[1] = molecular target: Matrix metalloproteinase-9 (Homo sapiens, UniProt P14780); assay: Inhibition of MMP-9 (unknown origin) using chromogenic substrate incubated for 1 hr by microplate photometer analysis
[2] = system: K562; assay: Antiproliferative activity against human K562 cells; assay type: functional, cell-based
[3] = Cytotoxicity against HEK293 cells incubated for 72 hrs by MTT assay; assay type: toxicity, cell-based; conditions: human
[4] = system: U-87 MG; assay: Antiproliferative activity against human U-87 MG cells incubated for 72 hrs by MTT assay
[5] = system: A549; assay: cells; conditions: Homo sapiens, A549, 72 h
Description: Antiproliferative activity against human A549 cells incubated for 72 hrs by MTT assay

[6] = molecular target: Neutrophil collagenase (Homo sapiens, UniProt P22894); assay: Inhibition of MMP-8 (unknown origin)
Neutrophil collagenase, sequence (P22894 whole entry): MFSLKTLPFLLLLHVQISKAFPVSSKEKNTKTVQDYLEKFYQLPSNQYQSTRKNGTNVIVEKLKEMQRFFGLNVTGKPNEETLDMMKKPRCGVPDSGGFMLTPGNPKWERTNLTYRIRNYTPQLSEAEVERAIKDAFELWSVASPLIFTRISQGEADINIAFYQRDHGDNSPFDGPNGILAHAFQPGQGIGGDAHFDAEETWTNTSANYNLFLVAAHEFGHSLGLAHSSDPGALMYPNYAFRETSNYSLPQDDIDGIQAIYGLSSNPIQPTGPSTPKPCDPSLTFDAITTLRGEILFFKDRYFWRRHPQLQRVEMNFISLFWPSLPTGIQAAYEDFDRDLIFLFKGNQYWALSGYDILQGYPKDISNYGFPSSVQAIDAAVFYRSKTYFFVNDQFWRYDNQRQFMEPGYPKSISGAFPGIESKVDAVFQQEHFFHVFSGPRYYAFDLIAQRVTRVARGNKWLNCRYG

[7] = molecular target: 72 kDa type IV collagenase (Homo sapiens, UniProt P08253); assay: Inhibition of MMP-2 (unknown origin) using chromogenic substrate incubated for 1 hr by microplate photometer analysis
72 kDa type IV collagenase, sequence (P08253 whole entry): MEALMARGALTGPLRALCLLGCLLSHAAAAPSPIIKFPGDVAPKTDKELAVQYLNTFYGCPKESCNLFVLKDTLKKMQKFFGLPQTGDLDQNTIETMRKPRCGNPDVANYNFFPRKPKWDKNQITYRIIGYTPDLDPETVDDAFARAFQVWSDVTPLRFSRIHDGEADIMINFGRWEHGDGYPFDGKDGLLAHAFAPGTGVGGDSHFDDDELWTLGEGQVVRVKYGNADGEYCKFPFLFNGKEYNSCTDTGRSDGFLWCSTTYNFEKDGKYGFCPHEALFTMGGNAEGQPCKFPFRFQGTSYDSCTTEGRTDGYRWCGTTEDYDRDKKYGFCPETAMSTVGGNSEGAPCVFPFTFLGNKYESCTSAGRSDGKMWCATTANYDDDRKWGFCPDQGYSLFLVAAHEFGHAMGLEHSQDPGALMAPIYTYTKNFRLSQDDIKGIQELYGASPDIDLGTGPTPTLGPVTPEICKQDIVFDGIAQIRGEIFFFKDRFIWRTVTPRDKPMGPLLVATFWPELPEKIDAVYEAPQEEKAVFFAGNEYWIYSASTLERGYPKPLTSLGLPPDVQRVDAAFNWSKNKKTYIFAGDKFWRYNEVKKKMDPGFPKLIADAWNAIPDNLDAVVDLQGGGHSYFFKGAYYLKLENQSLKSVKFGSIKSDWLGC

[8] = system: HT-1080; assay: Antiproliferative activity against human HT-1080 cells incubated for 72 hrs by MTT assay; conditions: HT-1080, 72 h
[9] = system: K562; assay: Antiproliferative activity against human K562 cells incubated for 72 hrs by PrestoBlue assay; conditions: K562, 72 h

Matrix metalloproteinase-9, sequence (P14780 whole entry): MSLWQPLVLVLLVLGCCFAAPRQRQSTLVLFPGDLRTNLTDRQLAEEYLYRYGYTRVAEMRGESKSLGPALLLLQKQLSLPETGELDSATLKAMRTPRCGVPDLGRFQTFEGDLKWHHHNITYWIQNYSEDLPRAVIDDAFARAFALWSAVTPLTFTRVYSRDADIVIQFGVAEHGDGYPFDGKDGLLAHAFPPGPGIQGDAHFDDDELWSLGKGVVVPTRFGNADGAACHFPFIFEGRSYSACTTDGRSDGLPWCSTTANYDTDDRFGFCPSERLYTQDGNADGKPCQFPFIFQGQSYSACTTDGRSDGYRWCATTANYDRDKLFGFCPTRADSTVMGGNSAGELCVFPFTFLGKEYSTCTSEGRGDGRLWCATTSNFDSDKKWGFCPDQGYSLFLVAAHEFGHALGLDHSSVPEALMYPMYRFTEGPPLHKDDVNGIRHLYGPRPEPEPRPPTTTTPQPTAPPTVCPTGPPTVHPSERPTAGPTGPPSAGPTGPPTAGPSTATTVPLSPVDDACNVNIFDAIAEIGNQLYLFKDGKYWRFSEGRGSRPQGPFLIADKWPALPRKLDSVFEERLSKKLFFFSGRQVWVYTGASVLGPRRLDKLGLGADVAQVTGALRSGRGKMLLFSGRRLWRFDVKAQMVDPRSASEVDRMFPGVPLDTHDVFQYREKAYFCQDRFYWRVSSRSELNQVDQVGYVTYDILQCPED

| IC50 [1] | IC50 [2] | IC50 [4] | IC50 [5] | IC50 [6] | IC50 [7] | IC50 [8] | IC50 [9] | Compound | IC50 at 72 h [3] |
| --- | --- | --- | --- | --- | --- | --- | --- | --- | --- |
| 0.833 µM | 5.26 µM | 29 µM | 18.4 µM | > 2 µM | 0.456 µM | 37.6 µM |  | CCCCNC(=O)CC[C@@H](NS(=O)(=O)c1ccc([N+](=O)[O-])cc1)C(=O)O | 368 µM |
|  |  | 16.8 µM | 19.5 µM |  |  | 25.9 µM | 3.75 µM | CCCCNC(=O)CC[C@@H](NS(=O)(=O)c1ccc(C)cc1)C(=O)O | 391 µM |
|  |  |  | 13.5 µM |  |  |  | 4.77 µM | COc1ccc(S(=O)(=O)N(CC(=O)NO)CC(C)C)cc1 |  |

Continued, molecule first:

| Compound | IC50 [1] | IC50 [2] | IC50 [4] | IC50 [5] | IC50 [6] | IC50 [7] | IC50 [8] | IC50 [9] | IC50 at 72 h [3] |
| --- | --- | --- | --- | --- | --- | --- | --- | --- | --- |
| CNC(=O)CC[C@@H](NS(=O)(=O)c1ccc(C)cc1)C(=O)O |  |  | 28.9 µM | 5.14 µM |  |  | 25.2 µM | 2.37 µM | 203 µM |
| CCNC(=O)CC[C@@H](NS(=O)(=O)c1ccc(C)cc1)C(=O)O |  |  | 32.3 µM | 4.82 µM |  |  | 16.5 µM | 2.54 µM | 491 µM |
| Cc1ccc(S(=O)(=O)N[C@H](CCC(=O)NC(C)C)C(=O)O)cc1 |  |  | 20.3 µM | 17.3 µM |  |  | 19.5 µM | 4.24 µM | 347 µM |
| NC(=O)CC[C@@H](NS(=O)(=O)c1ccc([N+](=O)[O-])cc1)C(=O)O |  |  | 26.4 µM | 8.99 µM |  |  | 20.5 µM | 9.73 µM | 173 µM |
| CC(C)NC(=O)CC[C@@H](NS(=O)(=O)c1ccc([N+](=O)[O-])cc1)C(=O)O |  |  | 37.5 µM | 10.6 µM |  |  | 43.5 µM | 11 µM | 271 µM |
